Laboratory results taken from US20250381165A1, “Method of Use for Benzofuran Compounds” (Tampa Bay Research Institute, Inc., priority 2024, published 2025).

Experiments:
[1] = system: DC2.4 cells presenting SIINFEKL to B3Z CD8+ T cell hybridoma; test: B3Z activation by SIINFEKL-pulsed DC2.4 (CPRG β-gal assay); format: cell-based, murine
Description: DC2.4 cells (2.5×10^4 cells/well) were seeded at 100 μL/well in 96 well tissue culture white sided/white bottom plate and incubated overnight to allow for cell adherence. 37° C. in an atmosphere containing 5% CO2 and 95% humidity. Following pre-treatment of the DC2.4 cells (1-24 h) with escalating doses of the test molecules, the cells were washed, pulsed with 0.5 nM of the MHC class I H-2Kb peptide, SIINFEKL, for 1 h, and then co-cultured with the CD8+ T cell hybridoma, B3Z.
The level of B3Z cell activation and the effects of the various test molecules on B3Z activation were quantified in cell lysates using the β-gal chromogenic substrate, CPRG. The media was removed and 100 μL of 250 μM CPRG reconstituted in the lysis buffer (1×DPBS, 0.2% v/v saponin, 20 mM magnesium chloride) was added directly to each well. Cells were maintained at 37° C. prior to measurement. The absorbance at 560 nm (700 nm for background) was intermittently monitored using a BioTek Synergy HTX multimode microplate reader (Winooski, VT) to detect β-gal activity. CPRG lysis buffer and B3Z cells only served as the negative controls. All treatments were performed in triplicate and all experiments were repeated a minimum of three times.
Activation of B3Z T cell hybridoma cells was assessed following their exposure to various MHC class I H-2K^b positive cell lines presenting the SIINFEKL peptide. B3Z are a CD8+ SIINFEKL peptide specific T-cell hybridoma expressing a beta-galactosidase (β-gal) reporter gene driven by NF-AT elements on the interleukin 2 (IL-2) promoter. […] Activation of B3Z leads to production of β-gal whose presence can be quantified using the optimized detection assay described by Jendresen et al. (Jendresen, et al., An improved CPRG colorimetric ligand-receptor signal transduction assay based on beta-galactosidase activity in mammalian BWZ-reporter cells. J Pharmacol Toxicol Methods. 2018 March-April; 90:67-75).
To stimulate β-gal production in the B3Z, the H-2Kb murine cell lines, DC2.4, B16F10, and E.G7-OVA, or freshly isolated murine splenocytes, were plated at a density of 2.5 or 5×10^4 cells/well (100 μL/well in 96 well plates) and cultured overnight at 37° C. in an atmosphere containing 5% CO2 and 95% humidity. The cells were washed with DPBS and then treated for 1-24 h with the indicated concentrations of BzFβ suspended in complete media. Vehicle controls were always included. […]
To detect activation of the B3Z cells, the media was removed and 100 μL of 250 µM CPRG reconstituted in the lysis buffer (1×DPBS, 0.2% v/v saponin, 20 mM magnesium chloride) was added directly to each well. […] The absorbance at 560 nm (700 nm for background) was intermittently monitored using a BioTek Synergy HTX multimode microplate reader (Winooski, VT) to detect β-gal activity. […]

[2] = target: T1, MHC class I H-2Kb tetramer (Mus musculus, UniProt P01901); test: QuickSwitch tetramer peptide exchange assay, H-2Kb; format: biochemical, murine; details: p<0.001; p=0.0013
T1 construct: purchased MBL International Corporation TB-7400-K2

[3] = system: DC2.4 cells (B3Z activation); test: Pathway inhibitor studies in DC2.4/B3Z assay; format: cell-based, murine; details: DC2.4, 3 μg/mL BFA, 25 μg/mL BzFβ 6 h, 0.5 nM SIINFEKL
Description: […]. The cytotoxicity of all inhibitors was assessed using CellTiter96 Aqueous One (Promega (Madison WI, USA); cat. no. G3580).
. The cells were then washed 2× before addition of BzFβ. Cells exposed to the other inhibitors were incubated with an appropriate concentration of each inhibitor, seen in Table 1 in cDMEM at 37° C., 5% CO2. […]. Cells were then incubated for 6 h. Before B3Z addition the inhibitor and BzFβ were removed, and the cells washed with warm DPBS. If testing peptide presentation, the DC2.4 cells were pulsed with 0.5 nM […] for 1 h prior to being cocultured with B3Z.

[4] = system: murine splenocytes (B3Z activation); test: B3Z activation by murine splenocytes (OVA or SIINFEKL); format: cell-based
Description: Murine splenocytes were plated at a density of 2.5 or 5×10^4 cells/well (100 μL/well in 96 well plates) and cultured overnight in cRPMI. The cells were washed with DPBS and then treated for 1-24 h with the indicated concentrations of BzFβ or co-treated with the indicated concentrations of BzFβ and 0.5 mg/mL OVA, suspended in complete media. Cells treated with BzFβ only were pulsed with 0.5 nM SIINFEKL pulsed for 1 h. The cells were then co-cultured with equal number of B3Z cells at 37° C. for 19 h.

B3Z cells = test: Direct treatment of B3Z cells; format: cell-based, murine; details: BzFβ alone; data not shown
[5] = system: DC2.4 cells (B3Z activation); test: Cross-presentation of whole OVA by DC2.4 to B3Z; format: cell-based, murine; details: co-treatment 6 h, 0.5 mg/mL OVA; p<0.001 all doses
Description: DC2.4 cells (5×10^5 cells/ml) were seeded at 100 μL/well in 96 well plates and cultured overnight. The cells were washed with DPBS, and co-exposed to 0.5 mg/mL soluble whole OVA, along with increasing concentrations of BzFβ for 6 h, The cells were then co-cultured with equal number of B3Z cells at 37° C. for 19 h.

T1 sequence (P01901 22-295 limits assumed): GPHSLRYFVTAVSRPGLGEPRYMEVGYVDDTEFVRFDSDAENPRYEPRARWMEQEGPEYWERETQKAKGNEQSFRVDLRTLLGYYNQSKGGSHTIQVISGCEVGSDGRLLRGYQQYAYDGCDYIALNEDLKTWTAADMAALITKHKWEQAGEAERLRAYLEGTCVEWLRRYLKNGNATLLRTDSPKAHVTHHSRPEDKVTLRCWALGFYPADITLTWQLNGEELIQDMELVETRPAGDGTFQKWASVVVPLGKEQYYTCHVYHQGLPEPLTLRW
T1 sequence (P61769 21-119 partner): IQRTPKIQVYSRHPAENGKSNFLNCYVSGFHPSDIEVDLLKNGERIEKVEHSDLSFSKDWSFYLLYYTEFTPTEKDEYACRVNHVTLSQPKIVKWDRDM

O=C(O)/C=C/c1ccc2occc2c1 [BzFβ, (2E)-3-(1-benzofuran-5-yl)prop-2-enoic acid]
B3Z response versus peptide pulsed DC2.4 alone ([1]; co-treatment 1 h, 25 μg/mL BzFβ, 15 pM to 1 nM SIINFEKL, 19 h coculture): significantly greater | time to significantly enhanced B3Z activation ([1]; peptide pulsed DC2.4): 5 min | displacing pre-bound peptide versus no exchange factor or provided exchange molecule [2]: significantly better | B3Z activation with SIINFEKL in presence of BFA [3]: unaffected | ability of splenocytes to activate B3Z, OVA ([4]; co-treatment 24 h, 0.5 mg/mL OVA): enhanced their ability to activate B3Z | ability of splenocytes to activate B3Z, SIINFEKL ([4]; pre-treatment 24 h, then 0.5 nM SIINFEKL 1 h): also enhanced their ability to activate the B3Z | doses with significant enhancement of B3Z activation, OVA ([4]; splenocytes, 0.5 mg/mL OVA, p<0.0001): > 6.25 µg/mL | doses with significant enhancement of B3Z activation, SIINFEKL ([4]; splenocytes, 24 h, 0.5 nM SIINFEKL 1 h, p<0.0001): > 12.5 µg/mL | effect of direct treatment on B3Z viability or activation (B3Z cells): no effect on cell viability or cell activation | B3Z response, cross-presentation of OVA [5]: significantly enhance the B3Z response
